Tests used:
Experiment in all cases: Off-chip Mobility Shift Assay (MSA) kinase inhibition
Type in all cases: biochemical
DDR1 = target: T1, DDR1 (Homo sapiens, UniProt Q08345)
T1 construct: purchased Carna Biosciences
Summary of the method: (§1)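 Read-out: product/substrate peptide peak heights by off-chip mobility shift, expressed as P/(P+S). Reactions ran 1 or 5 h at room temperature in HEPES pH 7.5 buffer with Triton X100 and DTT. Percent inhibition referenced to full reaction (0%) and no-enzyme background (100%).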

FLT1 = target: T2, FLT1 (Homo sapiens, UniProt P17948); details: inhibitor concentration 1 μM
T2 construct: purchased Carna Biosciences
Summary of the method: as §1

FRK = target: T3, FRK (Homo sapiens, UniProt P42685); details: inhibitor concentration 1 μM
T3 construct: purchased Carna Biosciences
T3 sequence (P42685 whole entry): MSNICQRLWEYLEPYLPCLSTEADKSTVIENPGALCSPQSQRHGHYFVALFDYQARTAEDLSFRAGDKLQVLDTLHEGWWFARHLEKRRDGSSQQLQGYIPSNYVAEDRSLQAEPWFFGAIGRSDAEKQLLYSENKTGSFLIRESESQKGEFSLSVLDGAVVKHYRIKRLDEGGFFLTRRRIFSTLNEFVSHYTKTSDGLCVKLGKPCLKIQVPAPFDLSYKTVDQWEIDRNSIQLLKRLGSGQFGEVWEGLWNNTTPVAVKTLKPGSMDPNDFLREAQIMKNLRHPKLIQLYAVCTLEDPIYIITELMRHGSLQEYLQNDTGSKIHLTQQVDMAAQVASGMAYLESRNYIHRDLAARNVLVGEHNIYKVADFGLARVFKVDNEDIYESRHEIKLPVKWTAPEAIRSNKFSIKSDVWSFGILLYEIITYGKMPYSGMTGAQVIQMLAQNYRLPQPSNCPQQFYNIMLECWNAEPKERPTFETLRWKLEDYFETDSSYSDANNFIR
Summary of the method: as §1

KIT(D816Y) = target: T4, KIT(D816Y) (Homo sapiens, UniProt P10721, D816Y); details: inhibitor concentration 1 μM
T4 construct: purchased Carna Biosciences
T4 sequence (P10721 26-976 D816Y): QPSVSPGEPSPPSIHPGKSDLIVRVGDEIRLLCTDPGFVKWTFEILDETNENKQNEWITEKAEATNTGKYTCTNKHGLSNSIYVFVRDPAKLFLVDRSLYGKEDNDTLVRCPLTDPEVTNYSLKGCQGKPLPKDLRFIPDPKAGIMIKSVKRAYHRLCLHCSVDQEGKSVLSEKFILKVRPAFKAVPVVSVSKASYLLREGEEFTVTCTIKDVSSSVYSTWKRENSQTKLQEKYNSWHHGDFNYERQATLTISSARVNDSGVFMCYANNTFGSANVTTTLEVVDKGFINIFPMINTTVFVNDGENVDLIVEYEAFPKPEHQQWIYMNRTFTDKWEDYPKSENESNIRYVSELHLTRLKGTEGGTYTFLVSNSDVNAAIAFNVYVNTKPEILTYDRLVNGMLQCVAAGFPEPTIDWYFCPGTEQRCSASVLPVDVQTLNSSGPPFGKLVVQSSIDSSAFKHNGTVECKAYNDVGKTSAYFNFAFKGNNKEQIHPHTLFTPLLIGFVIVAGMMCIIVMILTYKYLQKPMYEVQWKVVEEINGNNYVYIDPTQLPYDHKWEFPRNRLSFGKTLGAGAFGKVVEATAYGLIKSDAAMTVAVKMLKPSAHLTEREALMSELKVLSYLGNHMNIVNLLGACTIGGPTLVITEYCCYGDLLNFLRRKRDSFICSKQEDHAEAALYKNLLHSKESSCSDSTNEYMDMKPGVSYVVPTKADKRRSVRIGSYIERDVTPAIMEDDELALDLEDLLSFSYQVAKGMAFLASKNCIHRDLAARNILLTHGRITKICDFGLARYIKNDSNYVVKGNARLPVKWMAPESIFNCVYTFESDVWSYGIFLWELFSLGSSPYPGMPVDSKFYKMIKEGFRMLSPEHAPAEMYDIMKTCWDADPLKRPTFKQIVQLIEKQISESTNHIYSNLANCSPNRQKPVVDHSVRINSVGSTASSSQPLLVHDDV
Summary of the method: as §1

KIT(V654A) = target: T5, KIT(V654A) (Homo sapiens, UniProt P10721, V654A); details: inhibitor concentration 1 μM
T5 construct: purchased Carna Biosciences
T5 sequence (P10721 26-976 V654A): as the sequence (P10721 26-976 D816Y) above, with V629A, Y791D counted along it
Summary of the method: as §1

MAP2K4 = target: T6, MAP2K4 (Homo sapiens, UniProt P45985); details: inhibitor concentration 1 μM
T6 construct: purchased Carna Biosciences
T6 sequence (P45985 whole entry): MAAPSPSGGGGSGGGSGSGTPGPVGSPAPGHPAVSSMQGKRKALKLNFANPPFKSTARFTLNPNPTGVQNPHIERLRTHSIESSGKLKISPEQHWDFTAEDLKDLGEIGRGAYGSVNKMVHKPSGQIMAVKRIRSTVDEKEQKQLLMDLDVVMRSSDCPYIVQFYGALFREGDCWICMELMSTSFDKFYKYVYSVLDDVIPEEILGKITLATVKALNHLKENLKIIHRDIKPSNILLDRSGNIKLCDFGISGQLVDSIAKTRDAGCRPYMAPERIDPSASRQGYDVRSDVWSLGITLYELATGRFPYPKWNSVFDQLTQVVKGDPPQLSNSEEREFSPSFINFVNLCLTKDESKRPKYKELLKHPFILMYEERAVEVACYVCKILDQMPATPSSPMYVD
Summary of the method: as §1

MAP2K5 = target: T7, MAP2K5 (Homo sapiens, UniProt Q13163); details: inhibitor concentration 1 μM
T7 construct: purchased Carna Biosciences
T7 sequence (Q13163 whole entry): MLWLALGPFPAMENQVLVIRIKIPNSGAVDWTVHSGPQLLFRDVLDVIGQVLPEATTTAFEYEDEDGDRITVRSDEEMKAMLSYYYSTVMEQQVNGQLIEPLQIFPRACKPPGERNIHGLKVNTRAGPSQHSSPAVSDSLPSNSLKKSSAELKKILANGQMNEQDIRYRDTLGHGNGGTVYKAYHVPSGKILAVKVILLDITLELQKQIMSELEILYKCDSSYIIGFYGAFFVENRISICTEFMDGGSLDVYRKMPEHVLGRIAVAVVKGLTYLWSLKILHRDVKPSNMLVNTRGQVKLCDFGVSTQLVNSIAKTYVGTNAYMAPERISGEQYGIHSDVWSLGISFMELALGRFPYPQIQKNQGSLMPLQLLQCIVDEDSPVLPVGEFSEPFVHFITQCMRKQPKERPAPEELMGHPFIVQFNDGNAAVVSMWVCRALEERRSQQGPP
Summary of the method: as §1

MST4 = target: T8, MST4 (Homo sapiens, UniProt Q9P289); details: inhibitor concentration 1 μM
T8 construct: purchased Carna Biosciences
T8 sequence (Q9P289 whole entry): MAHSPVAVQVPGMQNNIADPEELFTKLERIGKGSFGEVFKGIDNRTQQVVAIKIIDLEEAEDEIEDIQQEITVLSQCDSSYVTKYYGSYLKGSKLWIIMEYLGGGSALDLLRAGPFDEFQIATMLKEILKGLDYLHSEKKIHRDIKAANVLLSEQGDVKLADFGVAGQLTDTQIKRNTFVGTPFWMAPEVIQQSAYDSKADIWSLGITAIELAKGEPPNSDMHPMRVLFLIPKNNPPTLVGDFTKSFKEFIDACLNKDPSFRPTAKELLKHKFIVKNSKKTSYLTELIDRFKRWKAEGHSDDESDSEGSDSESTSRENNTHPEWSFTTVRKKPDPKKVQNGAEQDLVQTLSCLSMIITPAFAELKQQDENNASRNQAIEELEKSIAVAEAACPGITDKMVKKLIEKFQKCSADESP
Summary of the method: as §1

RET(G691S) = target: T9, RET(G691S) (Homo sapiens, UniProt P07949, G691S)
T9 construct: purchased Carna Biosciences
T9 sequence (P07949 29-1114 G691S): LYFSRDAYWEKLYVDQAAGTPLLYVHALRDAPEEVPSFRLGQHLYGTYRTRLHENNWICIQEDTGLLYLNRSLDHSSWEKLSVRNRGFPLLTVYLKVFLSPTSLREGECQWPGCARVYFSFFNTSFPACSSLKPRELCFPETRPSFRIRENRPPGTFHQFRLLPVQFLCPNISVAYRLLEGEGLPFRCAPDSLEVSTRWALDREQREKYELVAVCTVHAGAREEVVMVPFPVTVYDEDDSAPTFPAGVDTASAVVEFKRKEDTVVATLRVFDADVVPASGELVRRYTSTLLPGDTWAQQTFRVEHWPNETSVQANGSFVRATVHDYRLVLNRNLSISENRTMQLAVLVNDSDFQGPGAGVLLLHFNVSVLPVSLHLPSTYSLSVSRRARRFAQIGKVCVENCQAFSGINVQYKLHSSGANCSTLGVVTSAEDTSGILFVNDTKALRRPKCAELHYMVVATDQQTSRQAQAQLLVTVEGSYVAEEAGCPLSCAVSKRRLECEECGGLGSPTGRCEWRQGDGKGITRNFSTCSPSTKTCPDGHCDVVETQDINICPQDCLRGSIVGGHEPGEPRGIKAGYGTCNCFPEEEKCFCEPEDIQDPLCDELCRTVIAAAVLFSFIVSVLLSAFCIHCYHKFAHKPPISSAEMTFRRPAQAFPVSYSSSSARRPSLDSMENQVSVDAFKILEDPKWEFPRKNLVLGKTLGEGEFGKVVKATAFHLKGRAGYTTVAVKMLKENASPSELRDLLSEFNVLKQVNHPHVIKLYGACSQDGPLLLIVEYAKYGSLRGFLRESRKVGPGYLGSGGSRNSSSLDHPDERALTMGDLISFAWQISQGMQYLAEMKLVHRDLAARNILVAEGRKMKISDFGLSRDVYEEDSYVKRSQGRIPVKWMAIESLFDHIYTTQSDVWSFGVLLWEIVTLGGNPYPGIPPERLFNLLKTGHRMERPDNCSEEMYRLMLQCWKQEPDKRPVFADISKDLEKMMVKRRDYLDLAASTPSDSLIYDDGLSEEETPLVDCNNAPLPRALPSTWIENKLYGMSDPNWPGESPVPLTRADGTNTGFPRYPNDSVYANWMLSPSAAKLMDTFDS
Summary of the method: as §1

ROCK1 = target: T10, ROCK1 (Homo sapiens, UniProt Q13464); details: inhibitor concentration 1 μM
T10 construct: purchased Carna Biosciences
Summary of the method: as §1

[1] = inhibitor concentration 0.01 μM

T1 sequence (Q08345 19-913): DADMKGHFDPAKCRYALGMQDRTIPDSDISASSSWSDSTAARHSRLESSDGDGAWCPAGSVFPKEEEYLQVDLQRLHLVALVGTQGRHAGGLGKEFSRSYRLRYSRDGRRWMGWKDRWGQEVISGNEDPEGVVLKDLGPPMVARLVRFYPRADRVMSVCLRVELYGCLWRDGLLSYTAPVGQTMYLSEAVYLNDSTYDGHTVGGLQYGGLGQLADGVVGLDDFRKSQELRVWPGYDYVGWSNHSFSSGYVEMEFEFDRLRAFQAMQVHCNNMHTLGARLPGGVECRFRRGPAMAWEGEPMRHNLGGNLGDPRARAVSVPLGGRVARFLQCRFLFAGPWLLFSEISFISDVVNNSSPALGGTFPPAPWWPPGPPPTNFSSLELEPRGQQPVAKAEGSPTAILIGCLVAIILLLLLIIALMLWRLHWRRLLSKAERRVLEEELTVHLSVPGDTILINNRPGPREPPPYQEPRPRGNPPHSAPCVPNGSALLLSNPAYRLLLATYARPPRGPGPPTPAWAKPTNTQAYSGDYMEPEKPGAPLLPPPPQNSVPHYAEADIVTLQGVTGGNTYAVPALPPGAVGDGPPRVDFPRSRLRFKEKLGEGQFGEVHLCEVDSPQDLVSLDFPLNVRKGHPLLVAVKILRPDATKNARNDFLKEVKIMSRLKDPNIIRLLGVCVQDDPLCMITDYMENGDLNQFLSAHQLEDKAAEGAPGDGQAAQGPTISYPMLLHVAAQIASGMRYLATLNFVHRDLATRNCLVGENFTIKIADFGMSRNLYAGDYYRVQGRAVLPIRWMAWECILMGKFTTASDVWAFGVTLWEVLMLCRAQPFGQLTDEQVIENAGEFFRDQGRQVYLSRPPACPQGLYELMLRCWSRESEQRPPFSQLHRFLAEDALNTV

- inhibition at 0.01 µM (DDR1; [1]): < 30%
- inhibition at 0.1 µM (DDR1; inhibitor concentration 0.1 μM): > 50%
- inhibition at 1 µM (DDR1; inhibitor concentration 1 μM): > 50%
- inhibition at 1 µM (FLT1): > 50%
- inhibition at 1 µM (FRK): > 50%
- inhibition at 1 µM (KIT(D816Y)): < 50%
- inhibition at 1 µM (KIT(V654A)): > 50%
- inhibition at 1 µM (MAP2K4): < 50%
- inhibition at 1 µM (MAP2K5): > 50%
- inhibition at 1 µM (MST4): < 50%
- inhibition at 0.01 µM (RET(G691S); [1]): < 30%
- inhibition at 0.1 µM (RET(G691S); inhibitor concentration 0.1 μM): < 50%
- inhibition at 1 µM (RET(G691S); inhibitor concentration 1 μM): > 50%
- inhibition at 1 µM (ROCK1): < 50%
Compound: O=C(c1c(F)ccc(NS(=O)(=O)CCCO)c1F)c1c[nH]c2ncc(-c3ccc(Cl)cc3)cc12 [200-17, N-[3-[5-(4-chlorophenyl)-1H-pyrrolo[2,3-b]pyridine-3-carbonyl]-2,4-difluorophenyl]-3-hydroxypropane-1-sulfonamide]
